Reference: patent US20220062299A1, “USE OF GLUCOCORTICOID STEROIDS IN PREVENTING AND TREATING CONDITIONS OF MUSCLE WASTING, AGING AND METABOLIC DISORDER” (NORTHWESTERN UNIVERSITY, priority 2018, published 2022)

Tests used:
mdx mice = assay: Metabolic cages (indirect calorimetry), mdx mice, 40 weeks; format: in vivo, mouse; conditions: weekly prednisone
Experimental: (§1) Metabolic cages. VO2 (ml/h/kg) and energy expenditure to body weight (kcal/h/kg) were assessed via indirect calorimetry using the TSE Automated Phenotyping System PhenoMaster (TSE system, Chesterfield, Mo.). Mice were singly housed in their home cages in an enclosed environmental chamber (part of the TSE system) with controlled temperature and light/dark cycles (12 hours each; 6 AM-6 PM). […] Measurements of CO2 production and O2 consumption occurred using the attached gas analyzer to assess energy expenditure. In addition, physical activity in three dimensions was monitored via infrared beam breaks through frames mounted on the perimeter of the metabolic cages. Enrichment items were omitted to avoid insulation from sensors and infrared light beam path obstruction. Results are expressed as 12 hour-period values (light/dark; 10 values per mouse). Metabolic cage assays were conducted blinded to treatment groups.

[1] = system: Wildtype (WT) mice fed high-fat chow; assay: Diet-induced obesity, wildtype mice on high-fat chow, 12 weeks; format: in vivo, mouse
Experimental: (G) At the end of treatment, quadriceps muscles were isolated and exposed ex vivo to either 10 mM glucose or 1 mM palmitate-BSA in the presence of 1×/min electrical stimulation. […] Curves depict interquartile range and single values; histograms depict single values and mean±s.e.m.; n=10 mice/group in A-E; n=3 mice/group in F-H. *, P<0.05 vs same-diet vehicle control, 1-way ANOVA with Tukey's multi-comparison; #, P<0.05 vs vehicle, 2-way ANOVA test.
as §1
2-NBDG uptake assay and glycemia/lactate monitoring. 2-NBDG uptake assay in live myofibers was conducted adapting previously reported conditions (Zou et al., 2005). FDB muscles were collected and carefully treated with collagenase type II and hand pipetting to liberate single myofibers, following reported procedures (Demonbreun and McNally, 2015). Myofibers from two FDB muscles were collected in 1 ml Ringer's solution (for 1 l, 7.2 g NaCl, 0.17 g CaCl2, 0.37 g KCl; pH, 7.4). 200 μl of myofiber suspension were dispensed per well of chambered coverglass (#155382; Thermo Fisher, Waltham, Mass.) and imaged as baseline condition for both transmitted light (1 ms integration) and green fluorescent channels (100 ms integration) at the Zeiss Axio Observer A1 microscope, using 20× short-range objective and the ZEN 2 software (version 2011; Zeiss, Jena, Germany). Immediately after baseline imaging, myofibers were supplemented with 2 mM glucose (#D8375-1 g; Millipore Sigma, St Louis, Mo.) and 50 μM 2-NBDG (#11046; Cayman Chemical, Ann Arbor, Mich.). For insulin-dependent uptake, insulin (#12585014; Thermo Fisher, Waltham, Mass.) was added to a final […] concentration. To control Glut1-/Glut4-dependent uptake, negative control wells were further supplemented with 10 μM cytochalasin B (#C6762; Millipore Sigma, St Louis, Mo.). Myofibers were incubated for 30 minutes in a 37° C./10% CO2 incubator, then washed twice in Ringer's solution and immediately imaged in fresh Ringers' solution, using the same integration and objective settings used for pre-incubation pictures. 2-NBDG uptake was quantitated as relative fluorescent units, calculated as intra-myofiber fluorescence after incubation subtracted of average baseline fluorescence. Fluorescence intensity was quantitated through serial analysis of acquired images (3 areas of approximately 85 μm^2 were analyzed for average fluorescence value per myofiber; >10 myofibers were analyzed per mouse) with ImageJ software (Schneider et al., 2012). All glucose uptake assays were conducted blinded to treatment groups.
Glucose was measured in blood (first drop from tail venipuncture) or serum (5 μl of 1:2 dilution) with an AimStrip Plus glucometer system (Germaine Laboratories, San Antonio, Tex.) and expressed as mg/dl values. Lactate was measured in blood (second drop from tail venipuncture) or serum (5 μl of 1:2 dilution) with a Lactate Plus reader (Nova Biomedical, Waltham, Mass.) and expressed as mM values. Fasting glycemia was measured in mice after 4 hours fasting (7 AM-11 AM). […]

[2] = WT mice on high-fat chow, weekly prednisone, 12 weeks

C[C@]12C=CC(=O)C=C1CC[C@@H]1[C@@H]2C(=O)C[C@@]2(C)[C@H]1CC[C@]2(O)C(=O)CO [prednisone, Prednisone]
oxygen consumption (VO2) and energy expenditure during nocturnal activity (mdx mice): increased
ATP and phosphocreatine production of quadriceps ex vivo ([1]; 10 mM glucose or 1 mM palmitate-BSA, normal and high-fat diet, weekly prednisone 12 weeks): higher levels
gain of body weight ([1]; WT mice on high-fat chow, once weekly prednisone 1 mg/kg i.p., 12 weeks, vs vehicle): reduced
accrual of whole-body fat mass and adipocyte mass in the ventral fat pad [1, 2]: reduced
endpoint grip strength and running endurance [1, 2]: significant improvement
gain of hyperglycemia (fasting blood glucose over time) [1, 2]: reduced
retention of lean mass, myofiber mass and specific force [1, 2]: improving
ex vivo uptake of 2-NBDG in freshly isolated myofibers ([1]; WT mice on high-fat chow, weekly prednisone, 12 weeks, absence and presence of insulin): improved
body-wide glucose homeostasis (glucose and insulin tolerance tests) ([1]; WT mice on high-fat chow, weekly prednisone, 12 weeks, endpoint): improved
oxidative capacity and energy expenditure in the active phase (metabolic cage) ([1]; normal or high-fat diet chow, weekly prednisone, 12 weeks): increased
